From patent publication US20030153080A1, “Methods for improving conifer embryogenesis” (priority 2002, published 2003)

Tests used:
Assay type in all cases: cell-based
[1] = system: loblolly pine somatic embryos; experiment: Single somatic embryo initiation test (colony diameter); settings: for Mean Colony Diameter: 0.1 mg/L added to medium 1253, measured at 4½ weeks
Procedure: (§1) For somatic initiation tests, embryos were selected from a liquid suspension culture supplemented with abscisic acid. (Table 1B, medium 16). Each replication consisted of ten adjacent wells on a multiwell plate, with a single stage 2, somatic embryo per well, providing two replications per multiwell plate. Four replications (for a total of 40 explants) were performed per treatment for each genotype. The plates were wrapped in Parafilme wrap to minimize evaporation and incubated at 22-24° C. in the dark for 4-6 weeks or until colony diameters were roughly ¾-1 cm. Typically, a single stage 2 embryo is approximately 0.1 mm in size. During this time period, the single embryo multiplies to form an embryogenic tissue mass of about 5-9 mm in diameter depending on the particular conifer, culture genotype, medium contents, and time. Changes in tissue diameters were used to assay the effects of vitamins or organic acid on early-stage embryo growth and multiplication. Colony diameters were measured using a dissecting scope ocular micrometer.
Osmolarity and pH of the culture media were monitored to ensure that these factors were similar throughout various conditions, and therefore, were not contributing to the observed differences. To analyze the results, the ANOVA statistical analysis was performed.
Single somatic embryo initiation tests were conducted to determine the effect of various vitamins on initiation. Embryos of loblolly pine were obtained and treated as described in Example 1. Isolated explants were incubated either in a control medium (Table 1A, medium 1253), or in the same medium supplemented with the K&M vitamin mixture (Table 1A, medium 1335). […] Evaluation of specific components of the K&M vitamin mixture lead to identification of the components responsible for the observed increase.
Single somatic embryo initiation tests were conducted to determine the effect of alpha-ketoglutaric acid on initiation in loblolly pine. Embryos of loblolly pine were obtained and treated as described in Example 1. The inventors note that a modification to the protocol detailed in Example 1 may be required due to the addition of an organic acid to the base medium. The addition of an acid, such as alpha-ketoglutaric acid, causes media pH to drop and therefore, all media supplemented with alpha-ketoglutaric acid were titrated to pH 5.7 before adding them to the cultures. Titration was performed with KOH, which increased potassium levels in the media by about 0.7 mM.
Single somatic embryo initiation tests were conducted according to the protocol described in Example 1. The inventors note that modification to the protocol detailed in Example 1 may be required due to the addition of an organic acid to the base medium. In culture medium containing 60.72 mg/L pyruvic acid (Table 1B, medium 1462) mean tissue diameter was 7.1 mm compared to a mean tissue diameter of 6.1 for embryos grown on the control medium 1253 indicating a positive correlation between embryo exposure to pyruvic acid and overall initiation. Iterations of this example in loblolly pine yielded similar percentage increases in initiation, e.g., a 7.2 mm mean tissue diameter for medium containing 0.52 mM pyruvic acid compared to 6.5 mm mean tissue diameter in the control medium. As shown herein, this effect is further enhanced by the combinations of multiple organic acids.

[2] = system: loblolly pine megagametophytes; experiment: Zygotic initiation test with megagametophyte explants (extrusion and initiation); settings: for effect on extrusion and initiation efficiency: 0.1 mg/L alone (media 1357, 1359), compared with medium 1391; for early extrusion and embryo expansion: supplement present in the medium
Procedure: (§2) Megagametophyte explants were isolated for zygotic initiation tests from loblolly pine summer cones when embryos were at approximately stage 2-4. Seeds were collected from four individual trees of diverse genotypes. Extracted seeds were soaked in running water for 10 minutes, agitated in 10% liquinox supplemented with 2 drops of Tween 20/L (polyoxyethylene-sorbitan monolaurate) for 10 minutes, and rinsed with water for 30 minutes. Seeds were sterilized in a laminar flow hood by agitating in 20% hydrogen peroxide for 10 minutes and rinsing with sterile deionized water. The seed coats, integuments and nucellus were removed to isolate the megagametophytes. Culturing was performed in 24-well culture plates with each well having an approximate volume of 3.0 ml. Two milliliters of media were added into each well.
Zygotic and somatic initiation tests were conducted to determine the effect of alpha-ketoglutaric acid in combination with vitamins B12 and E on initiation. Explants of loblolly pine were obtained and treated as described in Example 1 with the following modifications. Each replication consisted of ten adjacent wells on a multiwell plate, with one megagametophyte per well. Ten replications, for a total of 100 seeds, were performed per treatment for each cone collection.
According to the protocol of Example 1, four loblolly pine cone collections of approximately 500 seeds per collection with embryos at stages 2-4 were selected. Seeds were sterilized and dissected. […] Average initiation across the cone collections was roughly 30% for embryos grown on the control medium and roughly 36% for embryos grown on the test medium.

[3] = system: Douglas Fir zygotic embryos; experiment: Zygotic embryo initiation test
Procedure: as §2
Embryos of Douglas Fir were obtained, and treated as described in Example 1.
A further example is provided for Douglas Fir. Douglas Fir zygotic embryos were tested for improved initiation when exposed to cultures containing pyruvic acid according to the protocol described in Example 1. Control medium 121 (Table 1C) was supplemented with 60.7 mg/L pyruvic acid to create the test medium (Table 1C, medium 1625). After incubation for eight weeks in the dark, initiation was scored. For tissue exposed to pyruvic acid, mean initiation rates were approximately 35% compared to 32% for the untreated embryos.

[4] = system: loblolly pine stage 2 somatic embryos; experiment: Somatic embryo capture test in multiplication medium (colony diameter)
Procedure: as §1
Tests were conducted to determine the effect on somatic embryo capture of a medium supplemented with individual organic acids, such as alpha-ketoglutaric acid. Embryos of loblolly pine were obtained and treated as described in Example 1. Individual stage 2 embryos were selected from liquid maintenance medium and placed in multiplication medium (Table 1B, medium 1250).
Embryos of loblolly pine were obtained and treated as described in Example 1. Individual stage 2 embryos were selected from liquid maintenance medium and placed in multiplication medium (Table 1B, medium 1250). Stage 2 embryos were likewise placed in medium 1250 supplemented with 60.7 mg/L pyruvic acid (Table 1C, medium 1635). All cultures were incubated in the dark at 24-26° C. for 4-5 weeks.
A representative example for somatic capture uses embryos of loblolly pine obtained and treated as described in Example 1. Individual stage 2 embryos were selected from liquid maintenance medium and placed in multiplication medium (Table 1B, medium 1250). Compared to this control, the addition of 0.1 mg/L vitamin B12 alone to the multiplication medium (Table 1B, medium 1250) increased mean colony diameter by approximately 5%. Likewise, the addition of 100 mg/L alpha-ketoglutaric acid alone to the […] (Table 1B, medium 1250) increased mean colony diameter by approximately 10%.
Individual stage 2 embryos were selected from liquid maintenance medium and placed in multiplication control medium (Table 1B, medium 1250), as well as medium 1638, which is supplemented with 0.1 mg/L vitamin B12, 0.1 mg/L vitamin E, 100 mg/L alpha-ketoglutaric acid and 60.7 mg/L pyruvic acid (Table 1C, medium 1638). […]

[5] = system: Norway Spruce somatic embryos; experiment: Single somatic embryo initiation test (tissue diameter); settings: 60.7 mg/L (medium 1664); control medium 1662 gave 2.8 mm
Procedure: as §1
Tissue isolated and prepared according to Example 1 was incubated in a medium containing 0.1 mg/L of both vitamin B12 and E for 4-5 weeks in the dark at 24-26° C. (Table 1 D, medium 1665). Tissue cultured in medium 1665 achieved an average diameter of 3.1 mm compared to tissue cultured in the control medium, which achieved an average diameter of 2.8 mm. […]

For vitamin E, the “Mean Colony Diameter” value [1] was 4.65 mm, the “effect on extrusion and initiation efficiency” value [2] was “some, but a lesser effect” and the “early extrusion and embryo expansion” value [2] was “more robust”.

With `Nc1ccc(C(=O)O)cc1` [p-aminobenzoic acid] the “increase in mean colony diameter as compared to the control” value ([1]; 0.2 ppm (medium 1434) vs control medium 1253) was 32% and the initiation ([3]; 20 mg/L (medium 1627), base medium 121 gave 32%) was 39%.

For `O=C(O)CCC(=O)C(=O)O` [alpha-ketoglutaric acid], the “levels of initiation higher than control as measured by mean colony diameter” value ([1]; 100 ppm (medium 1342) vs control medium 1253, titrated to pH 5.7) was 20%, the “levels of initiation vs control medium 121” value ([3]; 100 mg/L (medium 1624)) was “higher levels of initiation” and the “early extrusion and embryo expansion” value [2] was “more robust”. For the same compound, the “increase in mean colony diameter vs medium 1250” value ([4]; 100 mg/L alpha-ketoglutaric acid alone) was “approximately 10%” and the “increase in mean colony diameter” value ([4]; only additive to control medium 1250, between 100 and 200 mg/L) was 5-6%.

`CC(=O)C(=O)O` [pyruvic acid] was tested, and the mean tissue diameter ([1]; 0.52 mM, iteration of the example, control medium gave 6.5 mm) was 7.2 mm, the mean tissue diameter ([1]; 60.72 mg/L (medium 1462), control medium 1253 gave 6.1) was 7.1 mm and the mean diameters [5] was 3.6 mm. The mean initiation rates ([3]; 60.7 mg/L (medium 1625), eight weeks in the dark, untreated 32%) was “approximately 35%” and the average diameter ([4]; 60.7 mg/L in medium 1250 (medium 1635), dark, 24-26° C., 4-5 weeks, control 3.3 mm) was “roughly 3.7 mm”.

For vitamin B12 [reference compound], the “Mean Colony Diameter” value [1] was 4.88 mm, the “effect on extrusion and initiation efficiency” value [2] was “some, but a lesser effect” and the “increase in mean colony diameter vs medium 1250” value ([4]; 0.1 mg/L vitamin B12 alone) was “approximately 5%”.
